Key:
FcγRI = target: T1, FcγRI (Homo sapiens, UniProt P12314); assay: FcγR Jurkat NFAT-luciferase reporter cell assay with SKBR3 target cells; type: cell-based
T1 construct: expressed in transfected cells; host or cells: Jurkat (NFAT-luciferase reporter)
Method: (§1) Cellular FcγR signaling was measured in a cell-based assay that uses SKBR3 target cells that endogenously express B7-H4 and Jurkat effector cells engineered to express FcγRI, RIIa, or RIII and an NFAT (nuclear factor of activated T cells) driven luciferase reporter gene. […] The luciferase signal is proportional to the degree of FcγR-induced effector cell activation and serves as a surrogate for ADCC (FcγRIII) or ADCP (FcγRI/IIa).
(§2) Specifically, Jurkat effector cells engineered to express FcγRI, RIIa, or RIII and an NFAT (nuclear factor of activated T cells) driven luciferase reporter gene were thawed and cultured in NFAT reporter cell medium (RPMI 1640 Medium (Gibco #11875-093) supplemented with 4% HyClone™ Fetal Bovine Serum, Super Low IgG (Gibco #A33819-01), 1× Penicillin-Streptomycin (Gibco #15140-122), 1×MEM nonessential amino acids (Gibco #11140-050), 1× L-Glutamine (Gibco #25030-081), 1× Sodium pyruvate (Gibco #11360-070), Hygromycin (Invitrogen #10687), Antibiotic G-418 sulfate solution (Promega #V8091), HEPES (Gibco #15630)). The Jurkat FcγR signaling assay was then performed as follows:
(§3) The day before the assay, target SKBR3 cells were lifted using Versene (Gibco #15040-066), washed twice with PBS, and plated at 1.2×10^4 cells per well in 90 μL RPMI 1640 containing 10% low IgG FBS and penicillin/streptomycin in black-walled 96-well plates (Corning #3603). The following day, NFAT assay buffer was prepared by adding 4 mL low IgG serum to 100 mL of RPMI 1640, mixed, and warmed to 37° C. NFAT assay buffer was used to resuspend all cells and antibody dilutions. Stock dilution plates (10×) of each antibody were prepared at 100, 30, 10, 3, 1, 0.3, 0.1, 0.03, 0.01, and 0.003 μg/mL. […] Effector cells were counted, washed twice in PBS, and resuspended at 1×10^6 cells/mL in NFAT assay buffer. […] Luminescence was measured for all samples with the Envision 96 CTG protocol (Envision plate reader, PerkinElmer) after mixing on a shaker (covered with foil) for at least 5 minutes. Background (no cells) signal was subtracted from the raw luminescence signal prior to graphing.

FcγRIII = target: T2, FcγRIII (Homo sapiens, UniProt P08637); assay: as above; type: cell-based
T2 construct: expressed in transfected cells; host or cells: Jurkat (NFAT-luciferase reporter)
T2 sequence (P08637 17-254): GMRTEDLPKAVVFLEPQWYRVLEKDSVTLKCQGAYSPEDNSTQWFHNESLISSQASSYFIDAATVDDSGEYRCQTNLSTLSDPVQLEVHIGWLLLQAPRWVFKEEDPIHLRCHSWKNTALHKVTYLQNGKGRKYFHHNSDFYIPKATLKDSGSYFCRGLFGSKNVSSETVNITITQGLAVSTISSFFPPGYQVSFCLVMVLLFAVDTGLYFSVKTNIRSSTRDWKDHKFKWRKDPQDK
Method: as §1, §2, §3

FcγRIIa = target: T3, FcγRIIa (Homo sapiens, UniProt P12318); assay: as above; type: cell-based
T3 construct: expressed in transfected cells; host or cells: Jurkat (NFAT-luciferase reporter)
T3 sequence (P12318 34-317): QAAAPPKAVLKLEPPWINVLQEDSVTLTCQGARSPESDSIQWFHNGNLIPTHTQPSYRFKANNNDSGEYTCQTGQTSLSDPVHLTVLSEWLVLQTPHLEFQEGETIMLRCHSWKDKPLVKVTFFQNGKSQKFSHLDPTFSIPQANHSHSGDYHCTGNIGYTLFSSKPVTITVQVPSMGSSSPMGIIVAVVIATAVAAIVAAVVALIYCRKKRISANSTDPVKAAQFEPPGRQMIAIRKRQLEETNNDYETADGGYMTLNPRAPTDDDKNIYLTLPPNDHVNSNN
Method: as §1, §2, §3

TNBC PDX models = assay: TNBC patient-derived xenograft models; type: in vivo, mice; conditions: 3 mg/kg q7dx3; for % TGI: vs untreated
Method: Tumor size and body weight were measured twice weekly, and the study was terminated when tumors in the control group reached 1500 mm^3 or up to Day 28, whichever occurred first, or maximum up to Day 60.
Specifically, stock mice were bilaterally implanted with fragments from one of the Champions TumorGraft® models representing human triple negative breast cancer. After the tumors reached 1000-1500 mm^3, they were harvested, and the tumor fragments were implanted subcutaneously (s.c.) in the left flank of the female study mice. Each animal was implanted with a specific passage lot and documented. Tumor growth was monitored twice a week using digital calipers, and the tumor volume (TV) was calculated using the formula (0.52×[length×width^2]). When the TV reached approximately 150-300 mm^3, animals were matched by tumor size and assigned into control (untreated) or treatment groups (n=1-3 animals/group). Each animal in the treatment groups was dosed with 10 mg/kg hIVIG (Grifolds), followed by 3 mg/kg of ADC every seven days for three total doses (q7dx3). Tumor size and body weight were measured twice weekly, and the study was terminated when tumors in the control group reached 1500 mm^3 or up to Day 28, whichever occurred first, or maximum up to Day 60.
Inhibition of tumor growth was determined by calculating the percent TGI on the day at which animals in the control group were terminated (100%×[1−(final MTV−initial MTV of a treated group)/(final MTV−initial MTV of the control group)]). Treatment started on Day 0.

T1 sequence (P12314 16-374): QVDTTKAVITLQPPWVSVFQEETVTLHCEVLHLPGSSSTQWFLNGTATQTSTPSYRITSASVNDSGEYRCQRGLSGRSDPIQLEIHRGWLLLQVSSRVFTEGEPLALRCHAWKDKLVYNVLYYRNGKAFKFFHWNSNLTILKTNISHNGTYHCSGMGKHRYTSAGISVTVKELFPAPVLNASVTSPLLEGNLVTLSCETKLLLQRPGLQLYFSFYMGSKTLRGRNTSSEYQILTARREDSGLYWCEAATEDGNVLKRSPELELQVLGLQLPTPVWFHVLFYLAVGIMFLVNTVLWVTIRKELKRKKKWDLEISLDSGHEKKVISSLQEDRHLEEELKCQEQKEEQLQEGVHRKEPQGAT

SGN-B7H4V: ADC of fully human IgG1 anti-B7-H4 mAb conjugated to monomethyl auristatin E (MMAE) via a protease-cleavable valine-citrulline linker (vedotin)
FcγRI-mediated luciferase activity (FcγRI): dose-dependent increase
FcγRIII-mediated luciferase activity (FcγRIII): dose-dependent increase
FcγRIIa-mediated luciferase activity (FcγRIIa): not FcγRIIa-mediated luciferase activity
PDX models with tumor regression or tumor growth delay (e.g. TGI>50%) (TNBC PDX models; TNBC): 9/11
% TGI (TNBC PDX models; TNBC_1, Day 13): 111%
% TGI (TNBC PDX models; TNBC_2, Day 7): 86%
% TGI (TNBC PDX models; TNBC_3, Day 20): 71%
% TGI (TNBC PDX models; TNBC_4, Day 20): 55%
% TGI (TNBC PDX models; TNBC_5, Day 9): 106%
% TGI (TNBC PDX models; TNBC_6, Day 20): 62%
% TGI (TNBC PDX models; TNBC_7, Day 20): 25%
% TGI (TNBC PDX models; TNBC_8, Day 17): 67%
% TGI (TNBC PDX models; TNBC_9, Day 22): 26%
% TGI (TNBC PDX models; TNBC_10, Day 27): 100%
% TGI (TNBC PDX models; TNBC_11, Day 52): 109%
